Test results from US20230123334A1, “AMINO LIPID COMPOUND, PREPARATION METHOD THEREFOR, AND APPLICATION THEREOF” (SHENZHEN SHENXIN BIOTECHNOLOGY CO., LTD., priority 2020, published 2023).

Tests used:
HEK293 cells [1] = experiment: Preliminary screening as DNA vectors, GFP transfection of HEK293 cells; assay type: cell-based; conditions: HEK293 cells; lipid/DOPE liposome with 75 ng plasmid DNA (psin-EGFP-IRES-Puro); number of cells expressing GFP divided by total number of nuclei (Hoechst)
Method in brief: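 First, amino lipid and DOPE were vortexed in sodium acetate buffer (pH 5.6) to form liposomes. Next, these were held with 75 ng EGFP plasmid at room temperature for 30 min. Finally, HEK293 cells were added, cultured at 37° C., Hoechst-stained, and GFP+/total nuclei scored by imaging.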

HEK293 cells [2] = experiment: Preliminary screening as mRNA vectors, EGFP mRNA transfection of HEK293 cells; assay type: cell-based; conditions: HEK293 cells, 96-well plates, EGFP mRNA 50 ng per well; percentage of GFP fluorescent cells relative to total number of cells (Hoechst)
Method in brief: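 Screening format: EGFP mRNA transfection (50 ng/well) into HEK293 in 10% FBS-supplemented DMEM. Percent green fluorescent cells, normalised to Hoechst nuclear count, gave the value; Lipofectamine2000 was the reference transfectant.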

| SMILES | Absolute DNA transfection efficiency in HEK293 cells (HEK293 cells [1]) [%] | Absolute mRNA transfection efficiency in HEK293 cells (HEK293 cells [2]) [%] |
| --- | --- | --- |
| CCCCCCCCCCCCCCCNc1nc(NCCCCCCC)nc(NCCCN2CCOCC2)n1 [Compound N7N15D8] | 0.2 | 0.2 |
| CCCCCCCCCCCCCCCCCCSc1nc(NCCN2CCCCC2)nc(SCCCCCCCCC)n1 [Compound S9S18D4] | 5.5 | 0.6 |
| CCCCCCCCCCCCCNc1nc(NCCCCCCCCC)nc(NCCN2CCOCC2)n1 [Compound N9N13D2] | 0.0 | 0.6 |
| CCCCCCCCCCCCCCCCCCNc1nc(NCCCCCCCCCCCCCCCC)nc(NCCN2CCCCC2)n1 [Compound N16N18D4] | 0.6 | 1.8 |
| CCCCCCCCCCCCCNc1nc(NCCCCCC)nc(NCCN(C)C)n1 [Compound N6N13D1] | 0.0 | 0.0 |
| CCCCCCCCCCCCCCSc1nc(NCCCN2CCOCC2)nc(SCCCCCCCCCCCC)n1 [Compound S12S14D8] | 3.7 | 1.3 |
| CCCCCCCCCCCCN(CCCCCCCCCCCC)c1nc(NCCCCCCCC)nc(NCCN2CCOCC2)n1 [N8^2N12D2] | 0.1 | 1.4 |
| CCCCCCCCCCCCCCCCCCSc1nc(NCCN2CCCC2)nc(SCCCCCCCCCCCCCCCC)n1 [Compound S16S18D3] | 1.9 | 1.8 |
| CCCCCCCNc1nc(NCCCCCCC)nc(NCCCN(C)C)n1 [Compound N7N7D6] | 0.0 | 0.0 |
| CCCCCCCCCCCCCCCCNc1nc(NCCN2CCOCC2)nc(N(CCCCCCCCCCCC)CCCCCCCCCCCC)n1 [N16^2N12D2] | 0.4 | 0.0 |
| CCCCCCCCCCCCNc1nc(NCCCCCCCCCCCC)nc(NCC2CCN(C)CC2)n1 [Compound N12N12D10] | 0.5 | 0.6 |
| CCCCCCCCCCCCCNc1nc(NCCN(C)C)nc(N(CCCCCCCCCCCC)CCCCCCCCCCCC)n1 [N13^2N12D1] | 1.2 | 4.7 |
| CCCCCCCCCCCCCCSc1nc(NCCN2CCCCC2)nc(SCCCCCCCCCCC)n1 [Compound S11S14D4] | 3.7 | 0.2 |
| CCCCCCCCCCCNc1nc(NCCCCCCC)nc(NCC2CCN(C)CC2)n1 [Compound N7N11D10] | 0.7 | 0.2 |
| CCCCCCCCCNc1nc(NCCCCCCCC)nc(NCC2CCN(C)CC2)n1 [Compound N8N9D10] | 0.5 | 0.2 |
| CCCCCCCCCCCCCCCCSc1nc(NCCN2CCCCC2)nc(SCCCCCCCCCC)n1 [Compound S10S16D4] | 9.1 | 0.8 |
| CCCCCCCCCCCCCCCNc1nc(NCCCCCCCCCCCC)nc(NCCN2CCCC2)n1 [Compound N12N15D3] | 1.1 | 6.5 |
| CCCCCCNc1nc(NCCCCCC)nc(NCCN2CCN(C)CC2)n1 [Compound N6N6D5] | 0.0 | 0.0 |
| CCCCCCCCCCCCCCCNc1nc(NCCCCCCCCCCCC)nc(NCCN(C)C)n1 [Compound N12N15D1] | 1.5 | 1.0 |
| CCCCCCCCCCCCN(CCCCCCCCCCCC)c1nc(NCCCCCC)nc(NCCN2CCOCC2)n1 [N6^2N12D2] | 0.2 | 0.0 |
| CCCCCCCCCCCCCCCCNc1nc(NCCCCCCCCCCCCC)nc(NCCCN(C)C)n1 [Compound N13N16D6] | 1.0 | 3.8 |
| CCCCCCCCCCCCCCCNc1nc(NCCCCCCCCCCCCC)nc(NCCCN(C)C)n1 [Compound N13N15D6] | 0.3 | 0.0 |
| CCCCCCCCCCCCCCCCCCNc1nc(NCCCCCCCCCCCC)nc(NCCCN(C)C)n1 [Compound N12N18D6] | 1.5 | 4.8 |
| CCCCCCCCCCCCCCCCSc1nc(NCCN2CCCC2)nc(SCCCCCCCCCCCCCC)n1 [Compound S14S16D3] | 0.4 | 0.2 |

| SMILES | Absolute DNA transfection efficiency in HEK293 cells (HEK293 cells [1]) [%] | Absolute mRNA transfection efficiency in HEK293 cells (HEK293 cells [2]) [%] |
| --- | --- | --- |
| CCCCCCCCCCCCCCCCNc1nc(NCCCCCCCCCCC)nc(NCCN(CC)CC)n1 [Compound N11N16D7] | 0.0 | 0.7 |
| CCCCCCCCCCCCCCCCNc1nc(NCCCCCCCCCCCCCCC)nc(NCCN2CCOCC2)n1 [Compound N15N16D2] | 0.0 | 0.0 |
| CCCCCCCCCCCCCCCCNc1nc(NCCCCCCCCCCCCC)nc(NCCCN2CCN(C)CC2)n1 [Compound N13N16D9] | 0.0 | 1.4 |
| CCCCCCCCCCCCCCCCCCNc1nc(NCCCCCCCCCCC)nc(NCCN(CC)CC)n1 [Compound N11N18D7] | 1.1 | 4.0 |
| CCCCCCCCCCCCCCCCCCNc1nc(NCCCCCCCCCCCC)nc(NCCN2CCCC2)n1 [Compound N12N18D3] | 3.5 | 13.4 |
| CCCCCCCNc1nc(NCCCCCCC)nc(NCC2CCN(C)CC2)n1 [Compound N7N7D10] | 0.1 | 0.0 |
| CCCCCCCCCCCCCCCSc1nc(NCCCN2CCOCC2)nc(SCCCCCCCCCC)n1 [Compound S10S15D8] | 15.2 | 11.1 |
| CCCCCCCCCCCSc1nc(NCCN(C)C)nc(SCCCCCCCCC)n1 [Compound S9S11D1] | 9.5 | 3.0 |
| CCCCCCCCCSc1nc(NCCN(C)C)nc(SCCCCCCCCC)n1 [Compound S9S9D1] | 12.9 | 0.8 |
| CCCCCCCCCCCCCCCCCCNc1nc(NCCCCCCCCCCCCCCCC)nc(NCCCN2CCOCC2)n1 [Compound N16N18D8] | 0.0 | 1.0 |
| CCCCCCCCCCCNc1nc(NCCCCCCCC)nc(NCCCN2CCOCC2)n1 [Compound N8N11D8] | 0.0 | 0.1 |
| CCCCCCCCCCSc1nc(NCCN(CC)CC)nc(SCCCCCCCCC)n1 [Compound S9S10D7] | 8.3 | 2.8 |
| CCCCCCCCCCCNc1nc(NCCCCCCC)nc(NCCN2CCCC2)n1 [Compound N7N11D3] | 1.0 | 1.3 |
| CCCCCCCCCCCCCCSc1nc(NCC2CCN(C)CC2)nc(SCCCCCCCCCC)n1 [Compound S10S14D10] | 23.0 | 37.7 |
| CCCCCCCCCCCSc1nc(NCCCN2CCN(C)CC2)nc(SCCCCCCCCC)n1 [Compound S9S11D9] | 8.5 | 49.7 |
| CCCCCCCCCCCCCCCNc1nc(NCCCCCCC)nc(NCCN(C)C)n1 [Compound N7N15D1] | 1.0 | 1.3 |
| CCCCCCCCCCCCCCCCCCSc1nc(NCCN2CCCCC2)nc(SCCCCCCCCCCCC)n1 [Compound S12S18D4] | 2.6 | 5.1 |
| CCCCCCCCCCCCNc1nc(NCCCCCCCCCCCC)nc(NCCN(CC)CC)n1 [Compound N12N12D7] | 0.1 | 0.6 |
| CCCCCCCCCCCCCCCCCCSc1nc(NCCN2CCCC2)nc(SCCCCCCCCCCCCCCC)n1 [Compound S15S18D3] | 2.6 | 1.9 |
| CCCCCCCCCCCCCNc1nc(NCC2CCN(C)CC2)nc(N(CCCCCCCCCCCC)CCCCCCCCCCCC)n1 [N13^2N12D10] | 0.0 | 0.0 |
| CCCCCCCCCCCCCNc1nc(NCCCCCC)nc(NCCCN(C)C)n1 [Compound N6N13D6] | 0.1 | 0.1 |
| CCCCCCCCCCCNc1nc(NCCCCCCCC)nc(NCCN(C)C)n1 [Compound N8N11D1] | 0.4 | 0.0 |
| CCCCCCCCCCCCCCCCSc1nc(NCCN2CCN(C)CC2)nc(SCCCCCCCCCCCCCCCC)n1 [Compound S16S16D5] | 0.0 | 0.7 |
| CCCCCCCCCCCCNc1nc(NCCCCCCCCCCC)nc(NCCN2CCN(C)CC2)n1 [Compound N11N12D5] | 0.0 | 8.0 |
